Assay results: patent US12569497B2, “Use of HCN inhibitors for treatment of cancer” (The University of Hong Kong, priority 2017, dated 2026)
Counter-ions that a name gives are not always drawn.

Tests used:
[1] = cited from earlier work
[2] = test system: BT-474 breast cancer cells; test: cell cycle flow cytometry (propidium iodide), BT-474; type: cell-based; settings: 200 μM, 24 hours
[3] = test system: MDA-MB-453 breast cancer cells; test: cell cycle flow cytometry (propidium iodide), MDA-MB-453; type: cell-based; settings: 200 μM, 72 hours
Protocol: Cells were seeded in 10 cm dish. When the confluence of cells reached 80%, the cells were treated with 200 μM of Ivabradine or double distilled water for 72 hours. The cells were washed with 10 mL of 1×PBS. The cells were detached from the dish by treating the cells with 1 mL of Trypsin (Gibco). The cell suspension was transferred to 15 mL centrifuge tube and subjected to centrifugation at 300×g for 5 minutes at room temperature. The cell pellet was kept. The cell pellet was washed with 5 mL of 1×PBS. The cell suspension was centrifuged at 300×g for 5 minutes at room temperature. The cell pellet was resuspended in 5 mL of 4% paraformaldehyde in PBS and place on ice for 15 minutes. The cell suspension was centrifuged at 300×g for 5 minutes. The cell pellet was washed with 5 mL of 1×PBS. After the washing, the cell suspension was centrifuged at 300×g for 5 minutes at room temperature. The cell pellet was resuspended in 0.5 mL of 1×PBS. The cell suspension was added to 5 mL of ice-cold 70% ethanol for 30 minutes. APO-BrdU TUNEL Assay Kit (ThermoFisher, Cat: A23210) was used. For each cell pellet, DNA labelling solution was prepared by mixing 10 μL of reaction buffer, 0.75 μL of TdT enzyme, 8 μL of BrdUTP and 31.25 μL of double distilled water. The cell pellet was resuspended in 50 μL of the DNA-labeling solution. […] The cells were analysed by BD LSR Fortessa Analyzer. […]

[4] = test system: TNBC cell line MDA-MB-231; test: MTT proliferation assay, MDA-MB-231; type: cell-based; settings: 200 μM, 5 days, vs double distilled water
Protocol: (§1) Ivabradine was purchased (Sigma). The powder was dissolved into double-distilled water.
(§2) MCF10A, MCF7, ZR75-1, BT474, MDA-MB-231, MDA-MB-453, Ishikawa, SW1116, PLC/PRF/5, MHCC-97L and Huh7 cells were seeded in 96-well plate with cell density 5000 cells per well. 200 μM of Ivabradine was used for cell treatment while double distilled water was used as control. […] MTT solution was prepared at 5 mg/mL in PBS and was filtered through a 0.2 μm filter. Then, 50 μl of MTT plus 200 μl of culture medium were added into each well. Cells were incubated for 4 hours at 37° C. with 5% CO2, 95% air and complete humidity. After 4 hours, the medium with MTT solution was removed and replaced with 200 μl of isopropanol with 4 mmol/L HCl and 0.1% NP-40. The 96-well plate was further incubated for 5 min at room temperature. The optical density of the wells was determined using a plate reader at a test wavelength of 570 nm and a reference wavelength of 630 nm.

(Ishikawa) = test: clonogenic assay, Ishikawa; type: cell-based; settings: 200 μM, 2 weeks
Protocol: (§3) For the clonogenic assay, 2000 cells were seeded in 6-well plate. 200 μM of Ivabradine was used to treat the cells while double distilled water was used as negative control. The cells were treated for 14 days. The cells were washed with 1 mL of 1×PBS and then fixed by incubating with 4% paraformaldehyde in PBS for 15 minutes at room temperature. The cells were washed with 1 mL of 1×PBS. The cell colonies were visualized by staining with 0.5% crystal violet (Sigma) solution for 1 hour at room temperature. The cells were washed with tap water. The number of cells equal or greater than 50 cells would be regarded as one colony. Number of colonies was counted. After the counting, stain was extracted by incubating with 500 μL of 10% acetic acid solution. The optical density at 650 nm was measured.

[5] = test system: breast cancer cell line BT474; test: MTT proliferation assay, BT474; type: cell-based; settings: 200 μM, 5 days, vs double distilled water
Protocol: as §1, §2

[6] = test system: liver cancer cell line PLC/PRF/5; test: MTT proliferation assay, PLC/PRF/5; type: cell-based; settings: 200 μM, 5 days, vs double distilled water
Protocol: as §1, §2

[7] = test system: cancer cell line Ishikawa; test: MTT proliferation assay, Ishikawa; type: cell-based; settings: 200 μM, 7 days, vs double distilled water
Protocol: as §1, §2

[8] = test system: BT-474 breast cancer cells; test: apoptosis by flow cytometry (APO-BrdU TUNEL), BT-474; type: cell-based; settings: 200 μM, 24 hours
Protocol: Cells were seeded in 10 cm dish. […] The cells were washed with 10 mL of 1×PBS. The cells were detached from the dish by treating the cells with 1 mL of Trypsin (Gibco). The cell suspension was transferred to 15 mL centrifuge tube and subjected to centrifugation at 300×g for 5 minutes at room temperature. The cell pellet was kept. The cell pellet was washed with 5 mL of 1×PBS. The cell suspension was centrifuged at 300×g for 5 minutes at room temperature. The cell pellet was resuspended in 5 mL of 4% paraformaldehyde in PBS and place on ice for 15 minutes. The cell suspension was centrifuged at 300×g for 5 minutes. The cell pellet was washed with 5 mL of 1×PBS. After the washing, the cell suspension was centrifuged at 300×g for 5 minutes at room temperature. The cell pellet was resuspended in 0.5 mL of 1×PBS. The cell suspension was added to 5 mL of ice-cold 70% ethanol for 30 minutes. APO-BrdU TUNEL Assay Kit (ThermoFisher, Cat: A23210) was used. For each cell pellet, DNA labelling solution was prepared by mixing 10 μL of reaction buffer, 0.75 μL of TdT enzyme, 8 μL of BrdUTP and 31.25 μL of double distilled water. The cell pellet was resuspended in 50 μL of the DNA-labeling solution. The cell suspension was incubated at 37° C. for 1 hour. […] The cells were analysed by BD LSR Fortessa Analyzer.

[9] = test system: MDA-MB-231 breast cancer cells; test: apoptosis by flow cytometry (APO-BrdU TUNEL), MDA-MB-231; type: cell-based; settings: 200 μM, 72 hours
Protocol: (§4) Cells were seeded in 10 cm dish. When the confluence of cells reached 80%, the cells were treated with 200 μM of Ivabradine or double distilled water for 72 hours. The cells were washed with 10 mL of 1×PBS. The cells were detached from the dish by treating the cells with 1 mL of Trypsin (Gibco). The cell suspension was transferred to 15 mL centrifuge tube and subjected to centrifugation at 300×g for 5 minutes at room temperature. The cell pellet was kept. The cell pellet was washed with 5 mL of 1×PBS. The cell suspension was centrifuged at 300×g for 5 minutes at room temperature. The cell pellet was resuspended in 5 mL of 4% paraformaldehyde in PBS and place on ice for 15 minutes. The cell suspension was centrifuged at 300×g for 5 minutes. The cell pellet was washed with 5 mL of 1×PBS. After the washing, the cell suspension was centrifuged at 300×g for 5 minutes at room temperature. The cell pellet was resuspended in 0.5 mL of 1×PBS. The cell suspension was added to 5 mL of ice-cold 70% ethanol for 30 minutes. APO-BrdU TUNEL Assay Kit (ThermoFisher, Cat: A23210) was used. For each cell pellet, DNA labelling solution was prepared by mixing 10 μL of reaction buffer, 0.75 μL of TdT enzyme, 8 μL of BrdUTP and 31.25 μL of double distilled water. The cell pellet was resuspended in 50 μL of the DNA-labeling solution. […] The cells were analysed by BD LSR Fortessa Analyzer.

MDA-MB-231 xenografts = test: tumor xenograft growth in nude mice, MDA-MB-231; type: in vivo, female nude mice; settings: MDA-MB-231 xenograft, 15 mg kg^−1 day^−1 IP, 15 days
Protocol: (§5) The effects of Ivabradine suppression on triple negative breast cancer was investigated in a female nude mouse model with MDA-MB-231 and MDA-MB-453 cells. The cell lines mixed with Matrigel (BD Biosciences) at the ratio of 1:1 were inoculated into the abdominal mammary fat pad of the 5 to 6 week old female nude mice. When the tumors were palpable, the mice were randomized into two groups, each consisting of eight animals. Each group was treated with Ivabradine (15 mg/kg day-1) or water. All reagents were administered via intraperitoneal delivery. Tumor sizes were measured by caliper and tumor volume was calculated as (length*width*width)/2. This protocol has been reviewed and approved by Committee on the Use of Live Animals in Teaching and Research (CULATR), the University of Hong Kong.
(§6) Tumor growth was compared between treatment and control groups (P<0.001). After 15 days (MDA-MB-231) or 18 days (MDA-MB-453) of the treatment, tumors were isolated and recorded by photo.

[10] = test system: liver cancer cells MHCC-97L; test: clonogenic assay, MHCC-97L; type: cell-based; settings: 200 μM, 2 weeks
Protocol: as §3

MDA-MB-453 xenografts = test: tumor xenograft growth in nude mice, MDA-MB-453; type: in vivo, female nude mice; settings: MDA-MB-453 xenograft, 15 mg kg^−1 day^−1 IP, 18 days
Protocol: as §5, §6

[11] = test system: liver cancer cell line Huh7; test: MTT proliferation assay, Huh7; type: cell-based; settings: 200 μM, 5 days, vs double distilled water
Protocol: as §1, §2

[12] = test system: MDA-MB-453 breast cancer cells; test: apoptosis by flow cytometry (APO-BrdU TUNEL), MDA-MB-453; type: cell-based; settings: 200 μM, 72 hours
Protocol: as §4

[13] = test system: TNBC cell line MDA-MB-453; test: MTT proliferation assay, MDA-MB-453; type: cell-based; settings: 200 μM, 5 days, vs double distilled water
Protocol: as §1, §2

[14] = test system: MDA-MB-231 breast cancer cells; test: cell cycle flow cytometry (propidium iodide), MDA-MB-231; type: cell-based; settings: 200 μM, 72 hours
[15] = test system: breast cancer cell line MCF7; test: MTT proliferation assay, MCF7; type: cell-based; settings: 200 μM, 5 days, vs double distilled water
Protocol: as §1, §2

[16] = test system: breast cancer cells (MCF7, MDA-MB-231, MDA-MB-453, and BT-474); test: clonogenic assay, breast cancer cells; type: cell-based; settings: 200 μM, 2 weeks
Protocol: as §3

[17] = test system: colon cancer cell line SW1116; test: MTT proliferation assay, SW1116; type: cell-based; settings: 200 μM, 3 days, vs double distilled water
Protocol: as §1
MCF10A, MCF7, ZR75-1, BT474, MDA-MB-231, MDA-MB-453, Ishikawa, SW1116, PLC/PRF/5, MHCC-97L and Huh7 cells were seeded in 96-well plate with cell density 5000 cells per well. 200 μM of Ivabradine was used for cell treatment while double distilled water was used as control. 3-(4,5-dimethyl-2-thiazolyl)-2,5-diphenyl-2H-tetrazolium bromide (MTT) assay was performed 24, 48, 72 and 96 hours after Ivabradine treatment. MTT solution was prepared at 5 mg/mL in PBS and was filtered through a 0.2 μm filter. Then, 50 μl of MTT plus 200 μl of culture medium were added into each well. Cells were incubated for 4 hours at 37° C. with 5% CO2, 95% air and complete humidity. After 4 hours, the medium with MTT solution was removed and replaced with 200 μl of isopropanol with 4 mmol/L HCl and 0.1% NP-40. The 96-well plate was further incubated for 5 min at room temperature. The optical density of the wells was determined using a plate reader at a test wavelength of 570 nm and a reference wavelength of 630 nm.

[18] = test system: liver cancer cells PLC/PRF/5; test: clonogenic assay, PLC/PRF/5; type: cell-based; settings: 200 μM, 2 weeks
Protocol: as §3

[19] = test system: liver cancer cell line MHCC-97L; test: MTT proliferation assay, MHCC-97L; type: cell-based; settings: 200 μM, 5 days, vs double distilled water
Protocol: as §1, §2

[20] = test system: colon cancer cells (SW1116); test: clonogenic assay, SW1116; type: cell-based; settings: 200 μM, 2 weeks
Protocol: as §3

SMILES: COc1cc2c(cc1OC)CC(=O)N(CCCN(C)C[C@H]1Cc3cc(OC)c(OC)cc31)CC2 [Ivabradine hydrochloride salt]
- solubility in water [1]: over 5 mg/ml

SMILES: COc1cc2c(cc1OC)CC(=O)N(CCCN(C)C[C@H]1Cc3cc(OC)c(OC)cc31)CC2 [Ivabradine, 1.7,8-dimethoxy-3-(3-(((4,5-dimethoxybenzocyclobutan-1-yl)methyl)methylamino)propyl)-1,3,4,5-tetrahydro-2H-benzazepin-2-one]
- cell cycle arrest [2]: induced sub-G1 cell cycle arrest
- cell cycle arrest [3]: induced sub-G1 cell cycle arrest
- proliferation (MTT) [4]: significantly reduced the proliferation
- colony formation and proliferation (clonogenic assay) ((Ishikawa)): suppression of ovarian cancer colony formation and proliferation
- proliferation (MTT) [5]: significantly reduced the proliferation
- proliferation (MTT) [6]: significantly reduced the proliferation
- proliferation (MTT) [7]: significantly reduced the proliferation
- apoptosis [8]: significantly induces apoptosis
- apoptosis [9]: significantly induces apoptosis
- tumor growth (MDA-MB-231 xenografts): significantly suppress tumor growth
- colony formation and proliferation (clonogenic assay) [10]: suppression of liver cancer colony formation and proliferation
- tumor growth (MDA-MB-453 xenografts): significantly suppress tumor growth
- proliferation (MTT) [11]: significantly reduced the proliferation
- apoptosis [12]: significantly induces apoptosis
- proliferation (MTT) [13]: significantly reduced the proliferation
- solubility in water [1]: about 0.02 mg/ml
- cell cycle arrest [14]: induced sub-G1 cell cycle arrest
- proliferation (MTT) [15]: significantly reduced the proliferation
- colony formation and proliferation (clonogenic assay) [16]: suppression of breast cancer colony formation and proliferation
- proliferation (MTT) [17]: significantly reduced the proliferation
- colony formation and proliferation (clonogenic assay) [18]: suppression of liver cancer colony formation and proliferation
- proliferation (MTT) [19]: significantly reduced the proliferation
- colony formation and proliferation (clonogenic assay) [20]: suppression of colon cancer colony formation and proliferation
